Experiment [1] deals with T1, PI3 Kinase (p110δ/p85α) (h) (Homo sapiens, UniProt O00329).
T1 construct: endogenous in cells; host or cells: Raji
Kind of experiment: Inhibition of phosphatidylinositol 3-kinase delta (PI3K δ), pAkt Western blotting in IgM-stimulated Raji cells. As to conditions: ATP=10 uM, sample concentration=100 nM. The class given is cell-based. On the procedure:
(§1) The stimulated cells were transferred in a 1.5 mL tube, followed by centrifugation at 3000 rpm for 1 minute. 100 μL of RIPA buffer (radioimmunoprecipitation assay buffer, 50 mM Tris-HCl, 5 mM EDTA, 150 mM NaCl, 1% NP-40, 1 mM PMSF, pH 8.0; ELPIS, Korea) was added thereto, which was stored in a 4° C. refrigerator for 12 hours. Centrifugation was performed at 4° C. at 14,000 rpm for 20 minutes. The supernatant was transferred into a new 1.5 mL tube. Protein was quantified by BCA (bicinchoninic acid) method and samples were prepared. The composition of the sample was as follows: sample buffer (ELPIS, EBA-1052) 5×, protein 10 μg, and 1× sample buffer to make the total volume 20 μL. The sample was heated at 100° C. for 5 minutes. The evaporated water vapor was condensed in a refrigerator. The liquid stained on the wall was fallen down by centrifugation for a few seconds. The sample proceeded to 10% SDS (Sodium Dodecyl Sulfate) acrylamide gel for separation. The separated protein was transferred onto PVDF (poly-vinyl difluoride) membrane, followed by reaction with pAkt (phospho protein kinase B) antibody (Ser473 or Thr308; Cell signaling, 9271s or 13038s) for 12 hours at 4° C. The membrane was washed with TBST (Tris-Buffered Saline with Tween 20, 10 mM Tris-HCl, pH 7.5, 150 mM NaCl, 0.1% Tween-20) three times for 5 minutes each, to which the secondary antibody (rabbit antibody, Santacruz, sc-2004) was added, followed by reaction at room temperature for 2 hours. The membrane was washed with TBST three times for 10 minutes each, to which ECL (enhanced chemiluminescence, Thermo, NCI34095KR) was sprayed. Bands were investigated by using LAS-3000.
The inhibition of phosphatidylinositol 3 kinase delta (PI3K δ) by those compounds prepared in Examples 1˜98 was investigated by the following experiment. The inhibition activity of each compound was measured in the following conditions: ATP=10 uM, and sample concentration=100 nM.
(§2) Raji cells cultured in RPMI1640 (Hyclone, SH30027.02) supplemented with 10% fetal bovine serum (Hyclon, USA) were distributed in a 12-well plate at the density of 1,000,000 cells/well. The cells were stabilized in a 37° C. CO2 for 24 hours and then treated with each compound for 1 and half hours. The cells were treated with 0.25 μg/mL of IgM (immunoglobulin M, Southern Biotech, USA) to increase the intracellular activity of PI3K delta. 30 minutes later, the medium was discarded and the cells were washed with cold PBS (phosphate buffered saline, Gibco, 14190-250). PBS was then eliminated completely by using a pipette. Western blotting was performed according to the same manner as described in step 2 of Experimental Example 1 to evaluate the intracellular PI3K delta activity.

Experiment [2] concerns the target T2, PI3 Kinase (p120γ) (h) (Homo sapiens, UniProt P48736).
T2 construct: endogenous in cells; host or cells: RAW264.7
The experiment in a line: Inhibition of phosphatidylinositol 3-kinase gamma (PI3K γ), pAkt Western blotting in C5a-stimulated RAW264.7 macrophages. It counts as cell-based, mouse. As to conditions: ATP=10 uM, sample concentration=100 nM. The method, then:
as §1
The inhibition of phosphatidylinositol 3 kinase gamma (PI3K γ) by those compounds prepared in Examples 1˜98 was investigated by the following experiment. The inhibition activity of each compound was measured in the following conditions: ATP=10 uM, and sample concentration=100 nM.
as §2, with “Macrophages (RAW264.7)” for “Raji cells”, “DMEM (Dulbecco's Modified Eagle Medium, Hyclon, SH30243.01)” for “RPMI1640 (Hyclone, SH30027.02)”, “10 ng/mL” for “0.25 μg/mL”, “C5a (complement component 5a, 10 μg/mL; R&D, 2150-C5)” for “IgM (immunoglobulin M, Southern Biotech, USA)”, “gamma. 5” for “delta. 30”, “gamma” for “delta”
In general terms: Immunoblotting shows a protein as a band on a membrane.

T1 sequence (O00329 whole entry): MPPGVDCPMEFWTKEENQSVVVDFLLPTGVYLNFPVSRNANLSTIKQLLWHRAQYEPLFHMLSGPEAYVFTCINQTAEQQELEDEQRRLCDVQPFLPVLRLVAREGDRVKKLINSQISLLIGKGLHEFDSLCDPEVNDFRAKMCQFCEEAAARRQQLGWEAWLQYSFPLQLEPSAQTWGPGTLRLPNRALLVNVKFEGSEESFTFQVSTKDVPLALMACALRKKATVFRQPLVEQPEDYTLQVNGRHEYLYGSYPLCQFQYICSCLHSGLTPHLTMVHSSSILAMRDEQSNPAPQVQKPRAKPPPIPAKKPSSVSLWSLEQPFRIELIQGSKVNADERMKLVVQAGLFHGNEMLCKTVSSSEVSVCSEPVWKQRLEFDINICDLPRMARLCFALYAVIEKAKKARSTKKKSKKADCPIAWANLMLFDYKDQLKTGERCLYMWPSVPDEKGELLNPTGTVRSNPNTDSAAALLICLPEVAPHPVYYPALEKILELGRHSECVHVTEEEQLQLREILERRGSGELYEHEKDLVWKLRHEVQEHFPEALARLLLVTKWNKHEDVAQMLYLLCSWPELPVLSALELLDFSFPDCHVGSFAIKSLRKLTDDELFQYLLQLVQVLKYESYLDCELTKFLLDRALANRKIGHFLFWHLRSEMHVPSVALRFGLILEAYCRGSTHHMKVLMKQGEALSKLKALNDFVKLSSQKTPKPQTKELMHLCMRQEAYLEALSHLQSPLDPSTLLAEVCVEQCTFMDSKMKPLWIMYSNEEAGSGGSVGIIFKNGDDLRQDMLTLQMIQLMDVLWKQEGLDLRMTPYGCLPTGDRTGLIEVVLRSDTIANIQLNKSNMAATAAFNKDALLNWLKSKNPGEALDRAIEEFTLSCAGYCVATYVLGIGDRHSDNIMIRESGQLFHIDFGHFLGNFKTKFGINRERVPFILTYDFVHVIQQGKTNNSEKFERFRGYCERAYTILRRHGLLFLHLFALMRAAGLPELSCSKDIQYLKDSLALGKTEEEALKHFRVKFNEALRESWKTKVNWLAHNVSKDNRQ
T1 sequence (P27986 whole entry partner): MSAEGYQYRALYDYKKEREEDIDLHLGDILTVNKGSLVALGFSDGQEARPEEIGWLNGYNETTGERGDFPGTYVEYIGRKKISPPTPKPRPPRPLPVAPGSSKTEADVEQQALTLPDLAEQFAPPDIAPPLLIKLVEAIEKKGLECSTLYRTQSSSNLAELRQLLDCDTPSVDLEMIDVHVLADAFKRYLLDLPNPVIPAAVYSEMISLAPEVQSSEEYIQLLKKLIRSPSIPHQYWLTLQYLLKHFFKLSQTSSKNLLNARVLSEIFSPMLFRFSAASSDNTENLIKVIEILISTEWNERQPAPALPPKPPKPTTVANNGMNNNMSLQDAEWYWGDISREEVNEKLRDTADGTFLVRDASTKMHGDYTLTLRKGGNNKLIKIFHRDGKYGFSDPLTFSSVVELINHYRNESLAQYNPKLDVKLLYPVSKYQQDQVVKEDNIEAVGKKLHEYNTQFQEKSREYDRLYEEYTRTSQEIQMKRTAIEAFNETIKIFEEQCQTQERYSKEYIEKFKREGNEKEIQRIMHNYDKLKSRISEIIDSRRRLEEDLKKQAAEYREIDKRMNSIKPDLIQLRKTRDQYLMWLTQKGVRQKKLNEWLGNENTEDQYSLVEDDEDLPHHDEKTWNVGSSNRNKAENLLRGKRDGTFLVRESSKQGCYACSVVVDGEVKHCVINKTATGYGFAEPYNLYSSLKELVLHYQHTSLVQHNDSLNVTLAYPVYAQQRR
T2 sequence (P48736 whole entry): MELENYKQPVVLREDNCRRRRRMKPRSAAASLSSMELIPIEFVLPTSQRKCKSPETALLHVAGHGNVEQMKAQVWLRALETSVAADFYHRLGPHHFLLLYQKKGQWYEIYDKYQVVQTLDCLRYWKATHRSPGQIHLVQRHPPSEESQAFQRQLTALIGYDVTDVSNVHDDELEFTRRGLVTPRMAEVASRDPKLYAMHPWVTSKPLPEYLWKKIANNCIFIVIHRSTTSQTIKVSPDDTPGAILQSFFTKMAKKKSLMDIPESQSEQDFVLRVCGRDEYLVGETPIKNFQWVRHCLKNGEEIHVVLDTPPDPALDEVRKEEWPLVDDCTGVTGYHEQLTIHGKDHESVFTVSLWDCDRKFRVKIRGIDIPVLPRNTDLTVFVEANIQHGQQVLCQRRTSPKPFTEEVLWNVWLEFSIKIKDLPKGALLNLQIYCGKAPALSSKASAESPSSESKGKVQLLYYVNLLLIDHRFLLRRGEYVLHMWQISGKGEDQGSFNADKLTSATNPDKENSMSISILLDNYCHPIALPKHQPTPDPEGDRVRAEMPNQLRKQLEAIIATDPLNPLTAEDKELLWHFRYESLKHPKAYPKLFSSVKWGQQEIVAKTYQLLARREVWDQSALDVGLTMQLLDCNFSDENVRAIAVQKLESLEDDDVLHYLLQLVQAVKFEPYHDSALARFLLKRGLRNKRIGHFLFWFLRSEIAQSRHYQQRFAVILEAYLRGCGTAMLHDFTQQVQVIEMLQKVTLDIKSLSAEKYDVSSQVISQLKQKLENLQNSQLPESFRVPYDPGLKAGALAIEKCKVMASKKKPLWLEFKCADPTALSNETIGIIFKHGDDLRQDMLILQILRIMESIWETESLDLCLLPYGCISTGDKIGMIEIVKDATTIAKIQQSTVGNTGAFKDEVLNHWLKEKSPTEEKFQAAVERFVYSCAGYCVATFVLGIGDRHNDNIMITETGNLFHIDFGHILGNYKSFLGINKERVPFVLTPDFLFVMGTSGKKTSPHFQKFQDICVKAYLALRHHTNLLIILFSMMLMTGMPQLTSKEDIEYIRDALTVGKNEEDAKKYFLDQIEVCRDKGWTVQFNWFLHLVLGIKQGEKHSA

As a reminder, the IC50 is the point on the concentration scale where inhibition reaches its midpoint. Read a low IC50 as higher potency. For `C[C@H](Nc1nc(N)nc2c1C(=O)N(C)CN2)c1cc2cccc(Cl)c2c(=O)n1-c1ccccc1` [Example 52, (S)-7-amino-5-((1-(8-chloro-1-oxo-2-phenyl-1,2-dihydroisoquinoline-3-yl)ethyl)amino)-3-methyl-2,3-dihydropyrimido[4,5-d]pyrimidine-4(1H)-one], the IC50 in experiment [1] and in experiment [2] was < 10 nM in each case.
Turning to `C[C@H](Nc1nc(N)nc2c1C(=O)N(C)CN2)c1cc2ccccc2nc1-c1ccccc1` [Example 53, (S)-7-amino-3-methyl-5-((1-(2-phenylquinoline-3-yl)ethyl)amino)-2,3-dihydropyrimido[4,5-d]pyrimidine-4(1H)-one], the IC50 in experiment [1] and in experiment [2] was 10 to 500 nM each time.
For the compound `CC[C@H](Nc1nc(N)nc2c1C(=O)N(C)CN2)c1nc2cccc(F)c2c(=O)n1-c1ccccc1` [Example 54, (S)-7-amino-5-((1-(5-fluoro-4-oxo-3-phenyl-3,4-dihydroquinazoline-2-yl)propyl)amino)-3-methyl-2,3-dihydropyrimido[4,5-d]pyrimidine-4(1H)-one], the IC50 in experiment [1] and in experiment [2] was 10 to 500 nM throughout.
On to `CN1CNc2nc(N)nc(N3CCC[C@H]3c3nc4cccc(Cl)c4c(=O)n3-c3ccccc3)c2C1=O` [Example 55, (S)-7-amino-5-(2-(5-chloro-4-oxo-3-phenyl-3,4-dihydroquinazoline-2-yl)pyrrolidine-1-yl)-3-methyl-2,3-dihydropyrimido[4,5-d]pyrimidine-4(1H)-one], for which the IC50 in experiment [1] and in experiment [2] was 10 to 500 nM each time.
`CN1CNc2nc(N)nc(N3CCC[C@H]3c3nc4cccc(Cl)c4c(=O)n3-c3cccnc3)c2C1=O` [Example 56, (S)-7-amino-5-(2-(5-chloro-4-oxo-3-(pyridine-3-yl)-3,4-dihydroquinazoline-2-yl)pyrrolidine-1-yl)-3-methyl-2,3-dihydropyrimido[4,5-d]pyrimidine-4(1H)-one]: the IC50 in experiment [1] and in experiment [2] was > 500 nM in each case.
Consider `CN1CNc2nc(N)nc(N3CCC[C@H]3c3nc4cccc(Cl)c4c(=O)n3-c3cccc(F)c3)c2C1=O` [Example 57, (S)-7-amino-5-(2-(5-chloro-3-(3-fluorophenyl)-4-oxo-3,4-dihydroquinazoline-2-yl)pyrrolidine-1-yl)-3-methyl-2,3-dihydropyrimido[4,5-d]pyrimidine-4(1H)-one], for which the IC50 is > 500 nM in experiment [1] and 10 to 500 nM in experiment [2].
For `Cc1cccc(-n2c([C@@H]3CCCN3c3nc(N)nc4c3C(=O)N(C)CN4)nc3cccc(Cl)c3c2=O)c1` [Example 58, (S)-7-amino-5-(2-(5-chloro-4-oxo-3-(m-tolyl)-3,4-dihydroquinazoline-2-yl)pyrrolidine-1-yl)-3-methyl-2,3-dihydropyrimido[4,5-d]pyrimidine-4(1H)-one] the same measures were > 500 nM and > 500 nM.
For `CN1CNc2nc(N)nc(N3CCC[C@H]3c3cc4cccc(Cl)c4c(=O)n3-c3ccccc3)c2C1=O` [Example 59, (S)-7-amino-5-(2-(8-chloro-1-oxo-2-phenyl-1,2-dihydroisoquinoline-3-yl)pyrrolidine-1-yl)-3-methyl-2,3-dihydropyrimido[4,5-d]pyrimidine-4(1H)-one] the same measures were > 500 nM and > 500 nM.
The matching figures for `CC(C)N1CNc2ncnc(N[C@@H](C)c3cc4cccc(Cl)c4c(=O)n3-c3ccccc3)c2C1=O` [Example 64, (S)-5-(1-(8-chloro-1-oxo-2-phenyl-1,2-dihydroisoquinoline-3-yl)ethylamino)-3-isopropyl-2,3-dihydropyrimido[4,5-d]pyrimidine-4(1H)-one]: > 500 nM and > 500 nM.
Consider `CC[C@H](Nc1ncnc2c1C(=O)N(C(C)C)CN2)c1nc2cccc(F)c2c(=O)n1-c1ccccc1` [Example 65, (S)-5-(1-(5-fluoro-4-oxo-3-phenyl-3,4-dihydroquinazoline-2-yl)propylamino)-3-isopropyl-2,3-dihydropyrimido[4,5-d]pyrimidine-4(1H)-one], for which the IC50 in experiment [1] and in experiment [2] was > 500 nM throughout.
As to `C[C@H](Nc1ncnc2[nH]cnc(=O)c12)c1nc2cccc(Cl)c2c(=O)n1-c1ccccc1` [Example 66, (S)-5-((1-(5-chloro-4-oxo-3-phenyl-3,4-dihydroquinazoline-2-yl)ethyl)amino)pyrimido[4,5-d]pyrimidine-4(1H)-one], the figures for the IC50 in experiment [1] and in experiment [2] were 10 to 500 nM and > 500 nM, respectively.
The matching figures for `C[C@H](Nc1ncnc2[nH]cnc(=O)c12)c1nc2cccc(Cl)c2c(=O)n1-c1cccnc1` [Example 67, (S)-5-((1-(5-chloro-4-oxo-3-(pyridine-3-yl)-3,4-dihydroquinazoline-2-yl)ethyl)amino)pyrimido[4,5-d]pyrimidine-4(1H)-one]: > 500 nM and > 500 nM.
`C[C@H](Nc1ncnc2[nH]cnc(=O)c12)c1nc2cccc(Cl)c2c(=O)n1-c1cccc(F)c1` [Example 68, (S)-5-((1-(5-chloro-3-(3-fluorophenyl)-4-oxo-3,4-dihydroquinazoline-2-yl)ethyl)amino)pyrimido[4,5-d]pyrimidine-4(1H)-one]: the IC50 in experiment [1] and in experiment [2] was > 500 nM in each case.
For the compound `Cc1cccc(-n2c([C@H](C)Nc3ncnc4[nH]cnc(=O)c34)nc3cccc(Cl)c3c2=O)c1` [Example 69, (S)-5-((1-(5-chloro-4-oxo-3-(m-tolyl)-3,4-dihydroquinazoline-2-yl)ethyl)amino)pyrimido[4,5-d]pyrimidine-4(1H)-one], the values for the IC50 in experiment [1] and in experiment [2] were 10 to 500 nM and > 500 nM, respectively.
`C[C@H](Nc1ncnc2[nH]cnc(=O)c12)c1cc2cccc(Cl)c2c(=O)n1-c1ccccc1` [Example 70, (S)-5-((1-(8-chloro-1-oxo-2-phenyl-1,2-dihydroisoquinoline-3-yl)ethyl)amino)pyrimido[4,5-d]pyrimidine-4(1H)-one]: the IC50 in experiment [1] and in experiment [2] was 10 to 500 nM in each case.
Turning to `C[C@H](Nc1ncnc2[nH]cnc(=O)c12)c1nn2ccc(Cl)c2c(=O)n1-c1ccccc1` [Example 71, (S)-5-((1-(5-chloro-4-oxo-3-phenyl-3,4-dihydropyrrolo[2,1-f][1,2,4]triazine-2-yl)ethyl)amino)pyrimido[4,5-d]pyrimidine-4(1H)-one], the IC50 was 10 to 500 nM in experiment [1] and > 500 nM in experiment [2].
As for `C[C@H](Nc1ncnc2[nH]cnc(=O)c12)c1cc2ccccc2nc1-c1ccccc1` [Example 72, (S)-5-((1-(2-phenylquinoline-3-yl)ethyl)amino)pyrimido[4,5-d]pyrimidine-4(1H)-one], the IC50 in experiment [1] and in experiment [2] was > 500 nM throughout.
Regarding `CC[C@H](Nc1ncnc2[nH]cnc(=O)c12)c1nc2cccc(F)c2c(=O)n1-c1ccccc1` [Example 73, (S)-5-((1-(5-fluoro-4-oxo-3-phenyl-3,4-dihydroquinazoline-2-yl)propyl)amino)pyrimido[4,5-d]pyrimidine-4(1H)-one], the IC50 in experiment [1] and in experiment [2] was > 500 nM throughout.
In the case of `O=c1nc[nH]c2ncnc(N3CCC[C@H]3c3nc4cccc(Cl)c4c(=O)n3-c3ccccc3)c12` [Example 74, (S)-5-(2-(5-chloro-4-oxo-3-phenyl-3,4-dihydroquinazoline-2-yl)pyrrolidine-1-yl)pyrimido[4,5-d]pyrimidine-4(1H)-one], the IC50 in experiment [1] and in experiment [2] was > 500 nM in each case.

The record behind these values is patent US10526337B2, “Heteroaryl derivative or pharmaceutically acceptable salt thereof, preparation method therefor, and pharmaceutical composition for preventing or treating diseases associated with PI3 kinases, containing same as active ingredient” (KOREA RESEARCH INSTITUTE OF CHEMICAL TECHNOLOGY, priority 2015, dated 2020).
